Test results as given in patent US11414416B1, “Compounds and uses thereof” (Foghorn Therapeutics Inc., priority 2019, dated 2022).

Columns and labels:
Type in all cases: cell-based
[1] = system: non-synovial control cancer cell lines (293T, A549, G401); experiment: Growth of non-synovial control cancer cell lines (Example 3); conditions: FIGS. 5-7
Description: (§1) Cells were treated with DMSO or the BRD9 degrader, Compound 1, at indicated concentrations, and proliferation was monitored from day 7 to day 14 by measuring confluency over time using an IncuCyte live cell analysis system (FIG. 5). Growth medium and compounds were refreshed every 3-4 days.
(§2) Cells were seeded into 12-well plates and treated with DMSO, 1 μM BRD9 inhibitor, Compound 2 (also known as BI-7273, see Martin et al, J Med Chem. 59(10):4462-4475 (2016); see structure of Compound 2 below), or 1 μM BRD9 degrader, Compound 1.
(§3) The number of cells was optimized for each cell line. Growth medium and compounds were refreshed every 3-5 days. SYO1, Yamato, A549, 293T and HS-SY-II cells were fixed and stained at day 11. ASKA cells were fixed and stained at day 23. Staining was done by incubation with crystal violet solution (0.5 g Crystal Violet, 27 ml 37% Formaldehyde, 100 mL 10×PBS, 10 mL Methanol, 863 dH20 to 1 L) for 30 min followed by 3× washes with water and drying the plates for at least 24 h at room temperature. Subsequently plates were scanned on an Odyssey CLx Imaging system (FIG. 6).
(§4) Cells were seeded into 96-well ultra low cluster plate (Costar, #7007) in 200 μL complete media and treated at day 2 with DMSO, Staurosporin, or BRD9 degarder, Compound 1, at indicated doses (FIG. 7). Media and compounds were changed every 5 d and cell colonies were imaged at day 14.

[2] = system: synovial sarcoma cell lines (SYO1, Yamato, HS-SY-II, and ASKA); experiment: Growth of synovial sarcoma cell lines (confluency, crystal violet, colonies; Example 3); conditions: FIGS. 5-7, 1 μM in crystal violet assay
Description: as §1, §2, §3, §4

[3] = system: non-synovial control cancer cell lines (RD, HCT116, and Calu6); experiment: Growth of non-synovial control cancer cell lines, crystal violet day 14 (Example 4); conditions: treated daily, day 14, FIG. 9
Description: (§5) Procedure: Cells were seeded into 6-well or 12-well plates and were treated daily with a BRD9 degrader (Compound 1), a bromo-domain BRD9 binder (Compound 2), E3 ligase binder (lenalidomide), DMSO, or staurosporin (positive control for cell killing), at indicated concentrations. The number of cells was optimized for each cell line. Growth media was refreshed every 5 days. By day 14, medium was removed, cells were washed with PBS, and stained using 500 μL of 0.005% (w/v) crystal violet solution in 25% (v/v) methanol for at least 1 hour at room temperature. Subsequently plates were scanned on an Odyssey CLx Imaging system.

[4] = system: synovial sarcoma cell lines (SYO1, HS-SY-II, and ASKA); experiment: Growth of synovial sarcoma cell lines, crystal violet day 14 (Example 4); conditions: for inhibition of growth of synovial sarcoma cell lines: SYO1, HS-SY-II, ASKA, treated daily, day 14, FIG. 8
Description: as §5

SYO1 cells [5] = experiment: Apoptosis assay, Annexin V-FITC Apoptosis Detection Kit; conditions: SYO1, 200 nM or 1 μM, 8 days, compared to DMSO controls
Description: (§6) Procedure: SYO1 cells were treated for 8 or 13 days with DMSO, a BRD9 degrader (Compound 1) at 200 nM or 1 μM, or an E3 ligase binder (lenalidomide) at 200 nM. Compounds were refreshed every 5 days. Cell cycle analysis was performed using the Click-iT™ Plus EdU Flow Cytometry Assay (Invitrogen). The apoptosis assay was performed using the Annexin V-FITC Apoptosis Detection Kit (Sigma A9210). Assays were performed according to the manufacturer's protocol.

SYO1 cells [6] = experiment: Cell cycle analysis, Click-iT Plus EdU Flow Cytometry Assay; conditions: SYO1, 200 nM or 1 μM, 8 or 13 days, compared to DMSO and lenalidomide
Description: as §6

Compound | inhibition of growth of non-synovial control cancer cell lines [1] | inhibition of growth of synovial sarcoma cell lines [2] | inhibition of growth of non-synovial control cancer cell lines [3] | inhibition of growth of synovial sarcoma cell lines [4] | overall comparison of growth inhibition in synovial cell lines ([4]; compared with Compound 2 and lenalidomide) | numbers of early- and late-apoptotic cells (SYO1 cells [5]) | numbers of cells in the S-phase of the cell cycle (SYO1 cells [6])
COc1cc(-c2cn(C)c(=O)c3cnccc23)cc(OC)c1CN(C)CC(=O)NCCOCCOCCNc1cccc2c1C(=O)N(C1CCC(=O)NC1=O)C2=O (centres unmarked) [Compound 1] | does not result in inhibition of the growth | inhibition of the growth of the cells | did not result in inhibition of the growth | inhibition of the growth of the cells | most significant growth inhibition | increased numbers of early- and late-apoptotic cells | reduced numbers of cells in the S-phase
COc1cc(-c2cn(C)c(=O)c3cnccc23)cc(OC)c1CN(C)C [Compound 2] | does not result in inhibition of the growth | inhibition of the growth of the cells | did not result in inhibition of the growth | inhibition of the growth of the cells | – | – | –
